Measured values: patent publication US11338004B2, “Composition for preventing or treating cranial nerve disease comprising fomes fomentarius extract, fraction thereof, or compound isolated therefrom as active ingredient” (priority 2015, dated 2022)

How the values were obtained:
[1] = test system: IL-1β; test: IL-1β in LPS-treated BV2 cells; assay type: cell-based, mouse; parameters: unit not given here
Procedure: (§1) A mouse BV2 cell line was stored and maintained in a humidified incubator at 37° C. under a 5% CO2 condition using a DMEM culture medium supplemented with 10% FBS, 100 U/ml of penicillin and 100 μg/ml of streptomycin, was trypsinized, and was subcultured.
(§2) BV2 cells were placed in a 6-well plate at 7.5×10^5 cells/well, and stabilized at 37° C. and 5.0% CO2 for 12 hours. After that, LPS and the Fomes fomentarius CHCl3 fractions, the nonadecanone (2-Nonadecanone) or the docosenol (cis-13-Docosenol) compounds were placed according to groups and were incubated for 1 hour. The cell culture was collected and used for cytokine analysis. All the cell culture was removed, and then 1 ml of dPBS was dispensed to each well to wash and remove the wells. 200 μl of the lysis buffer was dispensed per well and the cells attached to the bottom of the well were removed with a cell scriper, and then were slowly mixed and reacted for […] on ice at 4° C. The cells were removed with a scriper again and all the lysis solution was collected. The collected lysis solution was centrifuged at 15,000 rpm for 15 minutes at 4° C. so that only the supernatant was collected. In order to plot standard curves for protein quantification, a standard BSA solution ([…]) and a dilution were prepared in which bradford solution and D.W. were diluted with 4:1. After the bradford dilution was dispensed in each 200 μl to 96-well, the standard BSA solution and the cell lysis supernatant were dispersed in a volume of 10 μl per well, and then they were mixed by pipetting. After 10 minutes, the protein was quantitated by measuring the absorbance at 595 nm in a reader. The subsequent procedures were carried out in the same manner as in the quantitative analysis of the protein of Example 3-3.

[2] = DPPH radical scavenging activity
Procedure: The present experiment used the property that the hydrazyl of diphenylpicrylhydrazyl (DPPH) used in the present experiment has a property of easily accepting a hydrogen atom since the nitrogen atom is unstable, so as to react with the antioxidant material to accept the hydrogen atom to lose its own orthochromatism.
(§3) First, in order to measure DPPH radical scavenging activity of the Fomes fomentarius fraction, 1.9 ml of 0.2 mM DPPH solution (99.5% ethanol) was added to 0.1 ml of solutions (control: 99.5% ethanol) in which the concentrated dried material of each Fomes fomentarius substance was prepared at 7 concentrations of 10, 20, 40, 80, 160, 320 and 640 μg/ml, respectively. The mixture was shaken with a vortex mixer for 10 seconds and then incubated at 37° C. for 30 minutes. Then, the absorbance was measured at 517 nm using a spectrophotometer.
As a positive control drug, L-ascorbic acid was prepared at […] of 10, 20, 40, 80, 160, 320, and 640 μg/mL (99.5% ethanol).
The present inventors measured DPPH radicals scavenging activity in the same manner as in Example <2-2> above using nonadecanone (2-nonadecanone) and docosenol (cis-13-Docosenol) compounds found in the above and Fomes fomentarius CHCl3 fraction of the present disclosure.
as §3, with “Acer tegmentosum maxim extract,” for “Fomes fomentarius fraction,”, “Acer tegmentosum maxim material” for “Fomes fomentarius substance”
As a positive control, L-ascorbic acid was prepared at […] of 10, 20, 40, 80, 160, 320, and 640 μg/mL (99.5% ethanol).
as §3, with “berchemia berchemiaefolia extract,” for “Fomes fomentarius fraction,”, “berchemia berchemiaefolia material” for “Fomes fomentarius substance”
as §3, with “Lithospermum erythrorhizon extract,” for “Fomes fomentarius fraction,”, “Lithospermum erythrorhizon material” for “Fomes fomentarius substance”

[3] = test system: IL-6; test: IL-6 in LPS-treated BV2 cells; assay type: cell-based, mouse; parameters: unit not given here
Procedure: as §1, §2

[4] = test system: p38; test: Western blotting of LPS-induced p38 phosphorylation in BV2 cells; assay type: cell-based, mouse
Procedure: as §2

CCCCCCCC/C=C\CCCCCCCCCCCCO [docosenol, cis-13-Docosenol]
IL-1β level ([1]; 5 μg/ml): 65.15±7.6 | IL-1β level ([1]; 20 μg/ml): 59.12±6.1 | IL-1β level ([1]; 50 μg/ml): 50.55±4.2 | IL-1β level ([1]; 100 μg/ml): 48.19±5.8 | DPPH radical scavenging activity (% antioxidant activity) ([2]; 10 μg/mL): 1.3±0.4% | DPPH radical scavenging activity (% antioxidant activity) ([2]; 20 μg/mL): 2.6±0.2% | DPPH radical scavenging activity (% antioxidant activity) ([2]; 40 μg/mL): 5.8±0.6% | DPPH radical scavenging activity (% antioxidant activity) ([2]; 80 μg/mL): 7.7±0.6% | DPPH radical scavenging activity (% antioxidant activity) ([2]; 160 μg/mL): 6.6±0.7% | DPPH radical scavenging activity (% antioxidant activity) ([2]; 320 μg/mL): 8.8±1.1% | DPPH radical scavenging activity (% antioxidant activity) ([2]; 640 μg/mL): 10.6±0.9% | IL-6 level ([3]; 5 μg/ml): 301.56±7.6 | IL-6 level ([3]; 20 μg/ml): 249.35±10.1 | IL-6 level ([3]; 50 μg/ml): 171.68±5.5 | IL-6 level ([3]; 100 μg/ml): 138.51±6.8 | p-p38/p-38 ratio (%), expression ratio (vehicle 100%) ([4]; 5 μg/ml): about 69% | p-p38/p-38 ratio (%), expression ratio (vehicle 100%) ([4]; 20 μg/ml): about 48% | p-p38/p-38 ratio (%), expression ratio (vehicle 100%) ([4]; 50 μg/ml): about 36% | p-p38/p-38 ratio (%), expression ratio (vehicle 100%) ([4]; 100 μg/ml): about 25%

CCCCCCCCCCCCCCCCCC(C)=O [nonadecanone, 2-Nonadecanone]
IL-1β level ([1]; 5 μg/ml): 70.12±4.8 | IL-1β level ([1]; 20 μg/ml): 65.56±5.1 | IL-1β level ([1]; 50 μg/ml): 58.11±6.5 | IL-1β level ([1]; 100 μg/ml): 43.66±3.4 | DPPH radical scavenging activity (% antioxidant activity) ([2]; 10 μg/mL): 5.6±0.9% | DPPH radical scavenging activity (% antioxidant activity) ([2]; 20 μg/mL): 8.9±0.8% | DPPH radical scavenging activity (% antioxidant activity) ([2]; 40 μg/mL): 11.6±1.1% | DPPH radical scavenging activity (% antioxidant activity) ([2]; 80 μg/mL): 13.5±1.4% | DPPH radical scavenging activity (% antioxidant activity) ([2]; 160 μg/mL): 14.6±1.0% | DPPH radical scavenging activity (% antioxidant activity) ([2]; 320 μg/mL): 16.8±2.1% | DPPH radical scavenging activity (% antioxidant activity) ([2]; 640 μg/mL): 20.5±1.8% | IL-6 level ([3]; 5 μg/ml): 451.25±6.9 | IL-6 level ([3]; 20 μg/ml): 441.61±7.1 | IL-6 level ([3]; 50 μg/ml): 389.64±10.1 | IL-6 level ([3]; 100 μg/ml): 351.85±8.7 | p-p38/p-38 ratio (%), expression ratio (vehicle 100%) ([4]; 5 μg/ml): about 75% | p-p38/p-38 ratio (%), expression ratio (vehicle 100%) ([4]; 20 μg/ml): about 54% | p-p38/p-38 ratio (%), expression ratio (vehicle 100%) ([4]; 50 μg/ml): about 42% | p-p38/p-38 ratio (%), expression ratio (vehicle 100%) ([4]; 100 μg/ml): about 29%
